Experimental data published in a melting point compilation (Tetko et al.; mined from patent text by program, amines drawn as free bases though some values may be those of a salt).
Residues, ends and D or L forms follow the SMILES beside them. *: point of attachment. Cbz = O=C(OCc1ccccc1)*

melting point	SMILES
105 to 107 °C	Cc1nc(CS(=O)(=O)c2cccc(Cl)c2Cl)no1
130 to 132 °C	CC(CCC(=O)OC1CCCCC1)C1CC=C2C3=C(CCC21C)C1(C)CCC(O)C(C)(C)C1CC3 (centres undefined)
213 °C	O=c1cncc2ccccc2n1
210 to 211 °C	CC(C)c1c(C(=O)c2cccc(C=CC#N)c2)[nH]c(=O)[nH]c1=O
163 to 165 °C	CCOC(=O)c1sc(-n2ccc(OC)cc2=O)nc1C
95 to 96 °C	CCCc1cc(=O)n2cccc(O)c2n1
48 to 49 °C	CC(C)(C)OC(=O)NCCCCCCCBr
135 to 136 °C	CCC1(C)OC(=O)C(c2ccccc2)C(=O)O1 (centres undefined)
80 to 95 °C	CCOC(=O)CCCCCN1CCC[C@@H](NCc2ccccc2OC)[C@H]1c1ccccc1 (racemic)
73 to 74 °C	CCc1nc(-c2ccnnc2)no1
70 to 71 °C	CCc1cccc(CC)c1NC(=O)CN
269 to 270 °C	COc1ccc2c(c1)c(C=C1SC(=N)NC1=O)c(C)n2C(=O)c1ccc(Cl)cc1
179 °C	O=P(Cc1ccccc1O)(c1ccccc1)c1ccccc1
42 to 43 °C	CCNC(=O)OCCOc1ccc(Oc2ccc(F)cc2)cc1Cl
122 °C	CN(C)CCCN(C=O)C1CCC2C3CCC4CCCCC4(C)C3CCC21C (centres undefined)
118 to 120 °C	CCCCNc1ccc(Nc2ccccc2)c2c1C(=O)c1ccccc1C2=O
239 °C	Cc1cc(-c2ccc(C(=N)NO)o2)ccc1Br
185 to 186 °C	O=C1NCCc2ccc(OCCCCN3CCN(c4cccc(Cl)c4Cl)CC3)cc2N1
278 to 281 °C	O=c1c2cc(O)ccc2[nH]c2c([N+](=O)[O-])cc([N+](=O)[O-])c(Cl)c12
135 to 136 °C	CC(=O)c1cccc(N=P(c2ccccc2)(c2ccccc2)c2ccccc2)c1
193 to 195 °C	COc1ccc(S(=O)(=O)Nc2ccccc2Nc2ncccn2)cc1

melting point	SMILES
91 to 91.5 °C	CCc1ccc2nn(-c3cc(C)ccc3O)nc2c1
110 to 112 °C	CON(C(=O)c1cn(C)nc1C(F)F)C(C)Cc1c(Cl)cc(Cl)cc1Cl (centres undefined)
> 300 °C	O=c1oc2cc(O)c(O)cc2c(O)c1-c1coc2c1c(=O)oc1cc(O)c(O)cc12
218 to 219 °C	COc1ccc(CNc2nnc(-n3ccc(=O)cc3)c3ccc(C#N)cc23)cc1Cl
127 to 128 °C	CCSc1cc(C)nc(SCC)c1NC(=O)CCCCCCSc1nc2cccc(C(F)(F)F)c2o1
252 to 254 °C	Cc1cc2c(cc1C1=NNC(=O)CC1)NC(=O)C(C)O2 (centres undefined)
66.8 °C	COCCOC(=O)c1cncn1C1CCCc2ccccc21 (centres undefined)
108 to 110 °C	O=C(NCC12CC3CC(CC(C3)C1)C2)c1cccnc1Sc1cc(O)ccc1O
147 to 150 °C	O=[N+]([O-])c1cc(Cl)c(I)c(Cl)c1
135 to 137 °C	COc1cc2c(cc1OC)CC(N(CC(=O)O)C(=O)C(C)CSC(C)=O)C2 (centres undefined)
68 °C	COC(=O)CCn1c(C(=O)NCC(=O)N(CC2CCCCC2)c2c(OC)cc(C)cc2OC)cc2ccccc21
126 to 128 °C	Brc1ccc2cc(Nc3ccccc3)ccc2c1
101 to 102 °C	CCN(CC)CCNC(=O)c1cc(Cl)c(N)cc1OCCOC(C)=O
55 to 60 °C	COC(=O)c1ccc(C(F)(F)F)cc1Sc1ccccc1
84 to 85 °C	c1ccc(COc2ccc(COc3ccc(CCCn4ccnc4)cc3)cn2)cc1
60 to 61.5 °C	CCN(CC)C(=O)n1ccc(S(=O)(=O)c2cccc(Cl)c2Cl)n1
264 to 266 °C	Cc1nn(C)c2c(O)nc(C(C)C)nc12
124 °C	CC(C)(c1ccc(-c2nc(Nc3ccc(F)cc3)ncc2C#N)cc1)N1CCCC1
77 to 79 °C	CON=C(c1cc(C)no1)c1ccccc1COc1ncc(C(F)(F)F)cc1Cl
115 to 117 °C	CCCOc1ccccc1-c1nc2sccc2c(=O)[nH]1
74 to 75 °C	COC(=O)COc1ccc(OC)cc1C=O

Continued, molecule first:

SMILES	melting point
COC(=O)C1CCC2C3CCC4CC(OC(=O)CCl)CCC4(C)C3C(OC(=O)CCl)CC12C (centres undefined)	149 to 155 °C
CN1C[C@H](CN2CCN(C(c3ccccc3)c3ccccc3)CC2)C=C2c3cccc4[nH]c(Cl)c(c34)C[C@H]21	208 °C
CC(=NOCCC(N)=O)c1ccc(Cl)cc1	149 to 150 °C
CCOC(=O)CN1CCN(S(=O)(=O)c2ccc(N3CCC(NC[C@H](O)c4ccc(O)c(NS(C)(=O)=O)c4)CC3)cc2)CC1	91 to 92 °C
Nc1nc(OC2CCCC2)c2ncn([C@@H]3C[C@H](CO)[C@@H](O)C3)c2n1	181 to 182 °C
COc1ccc(CCCCNC(=O)C(F)(F)F)cc1S(N)(=O)=O	145 to 147 °C
CC(C)(C)OC(=O)NNc1cccc([N+](=O)[O-])c1	105 °C
CN(NC(=O)c1c(F)cccc1Cl)S(C)(=O)=O	135 to 136 °C
CCNn1cc(C(=O)O)c(=O)c2cc3c(cc21)OCO3	242 °C
Cn1ncc(C(=O)N2CCOCC2)c1C(=O)Nc1ccc2nc(-c3ccccc3)nn2c1	183 to 185 °C
CCCN1CCc2ccc(C(=O)CCC(=O)N3CCC(c4ccc(Cl)cc4)CC3)cc2CC1	151 to 152 °C
CC(C)(C)c1cc(Cl)c2c(c1)-c1ccccc1P(=O)(O)O2	240 °C
CN1CCCC2(CCn3c(c(C4=C(c5cn(C)c6ccccc56)C(=O)NC4=O)c4ccccc43)C2)C1 (centres undefined)	144 to 146 °C
C=C(CC(C)C)C(=O)NCC(=O)O	73 to 80 °C
CCC(C)N1CCc2c(C(=O)O)nc3c(C#N)cnn3c21 (centres undefined)	191 to 192 °C
COC(CN(C)C(=O)Nc1nnc(C(C)Oc2ccccc2)s1)OC (centres undefined)	117 to 121 °C
CCOC(=O)c1cn(-c2nc(N)c(F)cc2F)c2c(F)c(F)c(F)c(NCc3ccccc3)c2c1=O	176 to 180 °C
Cc1ccc2c(c1)[C@H]1Cc3ccccc3[C@H]1N2 (relative stereo)	110 °C
CC(C)(C)OC(=O)N(CCCC(=O)NO)Cc1cc2nc(-c3cccc4[nH]ncc34)nc(N3CCOCC3)c2s1	149 to 152 °C

SMILES	melting point
CCOC(=O)C1=C(C)N(c2ccc(Cl)cc2)C(=O)CC1	124 to 126 °C
O=C(NCCCCN1CCC(c2c[nH]c3ccccc23)CC1)c1sc(-c2ccc(C(F)(F)F)cc2)nc1CO	235 °C
O=C(O)c1cc(C(=O)O)cc(S(=O)(=O)Nc2ccc(F)c(C(F)(F)F)c2)c1	286 to 288 °C
O=c1ccc2c(-n3cncn3)nccc2[nH]1	> 300 °C
CC(=O)OCC1OC(n2cnc3c(NN4CCCCC4)nc(N)nc32)C(OC(C)=O)C1OC(C)=O (centres undefined)	77 to 79 °C
COc1c(OC)c(-c2ccccc2)n(-c2ccc(C)cc2)c1-c1ccccc1	192 to 193 °C
N#Cc1cnc2sc(S(=O)(=O)Cc3ccccc3)nn2c1=O	219 to 221 °C
COc1ccc(S(=O)(=O)C2(C(=O)NO)CCN(C(C)(C)C)CC2)cc1	40 °C
COC(=O)CCC(C#N)(CCC(=O)OC)c1cccc(Cl)c1	78.5 to 80 °C
CC(=O)OCC1CCn2c(c(C3=C(c4c[nH]c5ccccc45)C(=O)NC3=O)c3ccccc32)C1 (centres undefined)	264 to 265 °C
CCc1nc(-c2cc(Cl)c(O)c(Cl)c2)no1	126 °C
CCOC(=O)c1ccc(-n2cnnc2)cc1	209 to 211 °C
CN(C)c1ccc2c(n1)C(c1ccccc1Cl)=NCc1nncn1-2	240 to 242 °C
CCN(CC)CCn1nc2c3c(c(CN)ccc31)Sc1ccc(OC)cc1-2	74 to 76 °C
CCOC(=O)c1nc(-c2cccc(Cl)c2)c(-c2ccc(=O)n(C(C)C)n2)s1	134 to 136 °C
CS(=O)(=O)c1ccc(-c2cnn(-c3ccc(F)cc3)c(=O)c2-c2ccc(Cl)cc2)cc1	195 to 197 °C
COc1c(OS(=O)(=O)c2ccc(C)cc2)cc2c(c1OC)C1=C(CCC1)C(N1C(=O)c3ccccc3C1=O)CC2 (centres undefined)	139 °C
COc1ccc(C(=O)Cc2c(Cl)cncc2Cl)c2c(CC(=O)OCc3ccccc3[N+](=O)[O-])coc12	200 to 201 °C
C=CCOn1cc(C(=O)NCc2ccc(Cl)cc2)c(=O)c2ccccc21	113 to 114 °C

SMILES	melting point
CCN(CC)c1ccc(-n2c(CC(=O)O)c(C(=O)O)c3cc(Oc4ccc(Cl)cc4)ccc32)cc1	210 °C
COC(=O)C(Cc1ccccc1)NC(=O)C(Cc1ccccc1)NC(=O)CNC(=O)OCc1ccccc1 (stereo not drawn) (Cbz-Gly-Phe-Phe-OMe; configuration not given here)	122 to 124 °C
Cc1ccc(-c2c(-c3ccc(S(C)(=O)=O)cc3)[nH]c3ccccc23)cc1	197 to 198 °C
CCOC(=O)N1CCN(c2ccc(-n3cn[nH]c3=O)cn2)CC1	221 °C
O=C(CC(O)(Cn1cncn1)c1ccc(Cl)cc1Cl)N1CC1 (centres undefined)	151 to 153 °C
CC(C)Oc1cc(-n2c(=O)cc(C(F)(F)C(F)(F)F)[nH]c2=O)c(F)cc1Cl	141 to 143 °C
COc1cc2c(cc1O)[nH]c1cc(-c3ccccc3Cl)c3c(c12)C(=O)NC3=O	194 to 196 °C
CC(C)C[C@H](CC(=O)OC(C)(C)C)C(=O)N1C(=O)OC[C@@H]1C(C)C	143 to 144 °C
Nc1cc(Cl)cc(Cl)c1I	61 to 63 °C
COC(=O)c1cc2cc(S(N)(=O)=O)sc2s1	219 to 220 °C
CSc1nc(C)ccc1NC(=O)CCCCCBr	98 to 99 °C
CNC(=O)C(Br)CCBr (centres undefined)	48 to 49 °C
COC(=O)NCC(C)OS(C)(=O)=O (centres undefined)	37 to 40 °C
CCCn1nc2c(N)nc3ccccc3c2c1CCCCS(=O)(=O)N(C)C	144 to 146 °C
CC1(C)C(=O)Nc2ccc(-c3cc(F)cc(C#N)c3)cc21	231 to 232 °C
Cn1c(CCl)cnc1[N+](=O)[O-]	100 to 101 °C
CC(C)C(NC(=O)c1ccncc1)C(=O)NC(Cc1ccccc1)C(O)C(Cc1ccccc1)NC(=O)C(NC(=O)c1ccncc1)C(C)C (centres undefined)	256 to 258 °C
OCc1cnc2cc(C(F)(F)F)ccc2c1O	302 to 304 °C
Nc1ccc(OCCCCOc2ccc(N)cc2[N+](=O)[O-])c([N+](=O)[O-])c1	194 to 196 °C
